Each compound was assayed on P300/CBP (assay: P300/CBP cellular protein degradation).
Assay type: cell-based
Description: Cultured cells were washed with cold PBS once and lysed in cold RIPA buffer supplemented with protease inhibitors and phosphatase inhibitors (Beyotime Biotechnology). The solutions were then incubated at 4° C. for 30 min with gentle agitation to fully lysed cells. Cell lysates were centrifuged at 13,000 rpm for 10 min at 4° C. and pellets were discarded. Total protein concentrations in the lysates were determined following BCA assays (Beyotime Biotechnology). Cell lysates were mixed with Laemmli loading buffer and heated at 99° C. for 5 min. Proteins were resolved on SDS-PAGE and visualized using Western ECL Substrate kits on a ChemiDoc MP Imaging system (Bio-Rad). Protein bands were quantitated using the Image Lab software provided by Bio-Rad.

Structure (SMILES) | P300/CBP Degradation (100 nM)
CC(=O)N1CCc2c(c(N3CCCc4cc(-c5cnn(C)c5)c(C(F)F)cc43)nn2C2CCN(C(=O)CCCC(=O)Nc3ccccc3C(=O)Nc3nc(C)c([N+](=O)[O-])s3)CC2)C1 [CPD-200, 2-(5-(4-(5-Acetyl-3-(7-(difluoromethyl)-6-(1-methyl-1H-pyrazol-4-yl)-3,4-dihydroquinolin-1(2H)-yl)-4,5,6,7-tetrahydro-1H-pyrazolo[4,3-c]pyridin-1-yl)piperidin-1-yl)-5-oxopentanamido)-N-(4-methyl-5-nitrothiazol-2-yl)benzamide] | D (degradation activity < 30%)
CC(=O)N1CCc2c(c(N3CCCc4cc(-c5cnn(C)c5)c(C(F)F)cc43)nn2C2CCN(CC(=O)NCCOCCOCCNc3ccc(C(=O)Nc4ncc(C)s4)c(C)c3)CC2)C1 [CPD-198, 4-((2-(2-(2-(2-(4-(5-Acetyl-3-(7-(difluoromethyl)-6-(1-methyl-1H-pyrazol-4-yl)-3,4-dihydroquinolin-1(2H)-yl)-4,5,6,7-tetrahydro-1H-pyrazolo[4,3-c]pyridin-1-yl)piperidin-1-yl)acetamido)ethoxy)ethoxy)ethyl)amino)-2-methyl-N-(5-methylthiazol-2-yl)benzamide] | D (degradation activity < 30%)
CC(=O)N1CCc2c(c(N3CCCc4cc(-c5cnn(C)c5)c(C(F)F)cc43)nn2C2CCN(C(=O)CCCCCCCCCCC(=O)Nc3ccccc3C(=O)Nc3nc(C)c([N+](=O)[O-])s3)CC2)C1 [CPD-207, 2-(12-(4-(5-Acetyl-3-(7-(difluoromethyl)-6-(1-methyl-1H-pyrazol-4-yl)-3,4-dihydroquinolin-1(2H)-yl)-4,5,6,7-tetrahydro-1H-pyrazolo[4,3-c]pyridin-1-yl)piperidin-1-yl)-12-oxododecanamido)-N-(4-methyl-5-nitrothiazol-2-yl)benzamide] | D (degradation activity < 30%)
CC(=O)N1CCc2c(c(N3CCCc4cc(-c5cnn(C)c5)c(C(F)F)cc43)nn2C2CCN(C(=O)CCCCCCCCCCCC(=O)Nc3ccccc3C(=O)Nc3nc(C)c([N+](=O)[O-])s3)CC2)C1 [CPD-208, 2-(13-(4-(5-Acetyl-3-(7-(difluoromethyl)-6-(1-methyl-1H-pyrazol-4-yl)-3,4-dihydroquinolin-1(2H)-yl)-4,5,6,7-tetrahydro-1H-pyrazolo[4,3-c]pyridin-1-yl)piperidin-1-yl)-13-oxotridecanamido)-N-(4-methyl-5-nitrothiazol-2-yl)benzamide] | D (degradation activity < 30%)
CC(=O)N1CCc2c(c(N3CCCc4cc(-c5cnn(C)c5)c(C(F)F)cc43)nn2C2CCN(C(=O)CCCCCC(=O)Nc3ccccc3C(=O)Nc3nc(C)c([N+](=O)[O-])s3)CC2)C1 [CPD-202, 2-(7-(4-(5-Acetyl-3-(7-(difluoromethyl)-6-(1-methyl-1H-pyrazol-4-yl)-3,4-dihydroquinolin-1(2H)-yl)-4,5,6,7-tetrahydro-1H-pyrazolo[4,3-c]pyridin-1-yl)piperidin-1-yl)-7-oxoheptanamido)-N-(4-methyl-5-nitrothiazol-2-yl)benzamide] | D (degradation activity < 30%)
CC(=O)N1CCc2c(c(N3CCCc4cc(-c5cnn(C)c5)c(C(F)F)cc43)nn2C2CCN(C(=O)CCC(=O)Nc3ccccc3C(=O)Nc3nc(C)c([N+](=O)[O-])s3)CC2)C1 [CPD-199, 2-(4-(4-(5-Acetyl-3-(7-(difluoromethyl)-6-(1-methyl-1H-pyrazol-4-yl)-3,4-dihydroquinolin-1(2H)-yl)-4,5,6,7-tetrahydro-1H-pyrazolo[4,3-c]pyridin-1-yl)piperidin-1-yl)-4-oxobutanamido)-N-(4-methyl-5-nitrothiazol-2-yl)benzamide] | D (degradation activity < 30%)
CC(=O)N1CCc2c(c(N3CCCc4cc(-c5cnn(C)c5)c(C(F)F)cc43)nn2C2CCN(CC(=O)NCCCCCCCNc3ccc(C(=O)Nc4ncc(C)s4)c(C)c3)CC2)C1 [CPD-194, 4-((7-(2-(4-(5-Acetyl-3-(7-(difluoromethyl)-6-(1-methyl-1H-pyrazol-4-yl)-3,4-dihydroquinolin-1(2H)-yl)-4,5,6,7-tetrahydro-1H-pyrazolo[4,3-c]pyridin-1-yl)piperidin-1-yl)acetamido)heptyl)amino)-2-methyl-N-(5-methylthiazol-2-yl)benzamide] | D (degradation activity < 30%)
CC(=O)N1CCc2c(c(N3CCCc4cc(-c5cnn(C)c5)c(C(F)F)cc43)nn2C2CCN(CC(=O)NCCCC(=O)Nc3ccccc3C(=O)Nc3nc(C)c([N+](=O)[O-])s3)CC2)C1 [CPD-211, 2-(4-(2-(4-(5-Acetyl-3-(7-(difluoromethyl)-6-(1-methyl-1H-pyrazol-4-yl)-3,4-dihydroquinolin-1(2H)-yl)-4,5,6,7-tetrahydro-1H-pyrazolo[4,3-c]pyridin-1-yl)piperidin-1-yl)acetamido)butanamido)-N-(4-methyl-5-nitrothiazol-2-yl)benzamide] | D (degradation activity < 30%)
CC(=O)N1CCc2c(c(N3CCCc4cc(-c5cnn(C)c5)c(C(F)F)cc43)nn2C2CCN(CC(=O)NCCCCC(=O)Nc3ccccc3C(=O)Nc3nc(C)c([N+](=O)[O-])s3)CC2)C1 [CPD-212, 2-(5-(2-(4-(5-Acetyl-3-(7-(difluoromethyl)-6-(1-methyl-1H-pyrazol-4-yl)-3,4-dihydroquinolin-1(2H)-yl)-4,5,6,7-tetrahydro-1H-pyrazolo[4,3-c]pyridin-1-yl)piperidin-1-yl)acetamido)pentanamido)-N-(4-methyl-5-nitrothiazol-2-yl)benzamide] | D (degradation activity < 30%)
CC(=O)N1CCc2c(c(N3CCCc4cc(-c5cnn(C)c5)c(C(F)F)cc43)nn2C2CCN(CC(=O)NCCCCCCCCC(=O)Nc3ccccc3C(=O)Nc3nc(C)c([N+](=O)[O-])s3)CC2)C1 [CPD-216, 2-(9-(2-(4-(5-Acetyl-3-(7-(difluoromethyl)-6-(1-methyl-1H-pyrazol-4-yl)-3,4-dihydroquinolin-1(2H)-yl)-4,5,6,7-tetrahydro-1H-pyrazolo[4,3-c]pyridin-1-yl)piperidin-1-yl)acetamido)nonanamido)-N-(4-methyl-5-nitrothiazol-2-yl)benzamide] | D (degradation activity < 30%)
CC(=O)N1CCc2c(c(N3CCCc4cc(-c5cnn(C)c5)c(C(F)F)cc43)nn2C2CCN(CC(=O)NCCC(=O)Nc3ccccc3C(=O)Nc3nc(C)c([N+](=O)[O-])s3)CC2)C1 [CPD-210, 2-(3-(2-(4-(5-Acetyl-3-(7-(difluoromethyl)-6-(1-methyl-1H-pyrazol-4-yl)-3,4-dihydroquinolin-1(2H)-yl)-4,5,6,7-tetrahydro-1H-pyrazolo[4,3-c]pyridin-1-yl)piperidin-1-yl)acetamido)propanamido)-N-(4-methyl-5-nitrothiazol-2-yl)benzamide] | D (degradation activity < 30%)
CC(=O)N1CCc2c(c(N3CCCc4cc(-c5cnn(C)c5)c(C(F)F)cc43)nn2C2CCN(CC(=O)NCC(=O)Nc3ccccc3C(=O)Nc3nc(C)c([N+](=O)[O-])s3)CC2)C1 [CPD-209, 2-(2-(2-(4-(5-Acetyl-3-(7-(difluoromethyl)-6-(1-methyl-1H-pyrazol-4-yl)-3,4-dihydroquinolin-1(2H)-yl)-4,5,6,7-tetrahydro-1H-pyrazolo[4,3-c]pyridin-1-yl)piperidin-1-yl)acetamido)acetamido)-N-(4-methyl-5-nitrothiazol-2-yl)benzamide] | D (degradation activity < 30%)

From patent US20250235543A1, “MODIFIED PROTEINS AND PROTEIN DEGRADERS” (Cullgen (Shanghai), Inc., priority 2021, published 2025)
